Values after ≈ are worked out from the molar mass of the structure shown.

Among the data in patent US6524566B2, “Synthetic soil-extract materials and medicaments for herpes viruses based thereon” (Laub Biochemicals Corp., priority 1997, dated 2003) are IC50 and IC90 values, retold here.

One assay relates to EBV (Daudi Cells). Put plainly: EBV VCA ELISA in superinfected Daudi cells. The format is cell-based, Epstein-Barr virus. The following applies: human gammaherpesvirus 4, 96 h, 4 days. (In an ELISA, binding on a coated surface is turned into a signal by an enzyme label.)
For another assay, the system named is HSV-1 (HFF Cells). Description: HSV-1 cytoprotection assay in HFF cells (crystal violet). The format is cell-based, herpes simplex virus type 1. Particulars: Human alphaherpesvirus 1, 72 h, 3 days.
The test system of the next assay is HSV-2 (HFF Cells). Put plainly: HSV-2 cytoprotection assay in HFF cells (crystal violet). The format is cell-based, herpes simplex virus type 2. Particulars: Human alphaherpesvirus 2, 72 h, 3 days.
The next assay deals with HCMV (HFF Cells). Description: HCMV cytoprotection assay in HFF cells (crystal violet). It counts as cell-based, human cytomegalovirus. The following applies: Human betaherpesvirus 5, 336 h, 14 days.

Description for EBV (Daudi Cells): The EBV prototype virus used in the assay of this work was P3HR-1, which is derived from supernatant fluids of the P3HR-1 cell line. This cell line produces nontransforming virus that induces the production of early antigen (EA) and viral capsid antigen (VCA) after primary infection or superinfection of B cell lines. Daudi was the test-cell line, which is a low-level producer that contains 152 EBV genome copies per cell. These cells respond to superinfection by EBV by expressing EA and VCA. The cell line was maintained in RPMI-1640 medium supplemented by 10% FBS, L-glutamine and 100 micrograms per milliliter gentamicin. The cultures were fed twice weekly and the cell concentration adjusted to 3×10^5 cells per milliliter. The cells were kept at 37° C. in a humidified atmosphere with 5% CO2.
Daudi cells were infected and treated with humates as described above for HSV, HCMV, and VZV. The cultures were incubated for 4 days at 37° C. The cells were counted, washed and brought to the desired final concentration. For each dilution of humate, cells were added to triplicate wells of a 96-well plate and air-dried. The cells were then fixed for 20 minutes in an acetic acid/ethanol solution. […] The reaction was stopped by adding 3 Normal sulfuric acid, following which the plates were read on a microplate reader at 492 nanometers.

For orientation: IC50 means the midpoint of a concentration-inhibition curve. A higher IC50 goes with a need for much substance. Usually IC90 stands for the concentration needed for an effect of 90%. As for `Nc1nc2c(ncn2COCCO)c(=O)[nH]1` [Acyclovir], the IC50 with EBV (Daudi Cells) was 1.8 to 2.4 µg/mL (≈ 7.99 to 10.7 µM); with HSV-1 (HFF Cells) it was 1.2 to 1.6 µg/mL (≈ 5.33 to 7.1 µM); in the assay with HSV-2 (HFF Cells), 1.1 to 1.3 µg/mL (≈ 4.88 to 5.77 µM). The IC90 in the assay with HSV-1 (HFF Cells) was determined as 7.9 µg/mL (≈ 35.1 µM); in the assay on HSV-2 (HFF Cells), 9.5 µg/mL (≈ 42.2 µM).

On to `Nc1nc(O)c2ncn(COC(CO)CO)c2n1` [Ganciclovir], for which, in the assay on HCMV (HFF Cells), the IC50 lay in the range of 0.3 to 0.76 µg/mL (≈ 1.18 to 2.98 µM) and the IC90 fell in the range of 0.6 to 1.3 µg/mL (≈ 2.35 to 5.09 µM).
